One data set has as its target T1, human recombinant COX-2 (Homo sapiens, UniProt P35354).
T1 construct: purchased Cayman Chemicals, Ann Arbor, MI, USA
T1 sequence (P35354 18-604): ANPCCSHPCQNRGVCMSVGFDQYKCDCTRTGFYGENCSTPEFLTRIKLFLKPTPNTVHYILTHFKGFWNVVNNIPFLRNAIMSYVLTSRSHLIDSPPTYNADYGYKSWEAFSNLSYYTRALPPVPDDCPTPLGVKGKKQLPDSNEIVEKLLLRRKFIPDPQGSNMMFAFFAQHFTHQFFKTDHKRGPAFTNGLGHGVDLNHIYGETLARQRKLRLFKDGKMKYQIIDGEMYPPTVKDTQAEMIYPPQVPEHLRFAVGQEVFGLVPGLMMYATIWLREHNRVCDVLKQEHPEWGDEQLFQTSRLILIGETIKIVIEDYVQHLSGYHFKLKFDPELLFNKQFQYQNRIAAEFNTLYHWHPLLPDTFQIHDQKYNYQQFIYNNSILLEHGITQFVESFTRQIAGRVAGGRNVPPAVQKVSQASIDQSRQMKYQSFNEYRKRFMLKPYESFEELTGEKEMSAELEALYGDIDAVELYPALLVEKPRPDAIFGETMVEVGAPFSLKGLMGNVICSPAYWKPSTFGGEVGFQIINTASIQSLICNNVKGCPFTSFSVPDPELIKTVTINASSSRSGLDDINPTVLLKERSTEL
Put plainly: In vitro COX-2 colorimetric enzyme assay (Cayman kit, TMPD at 590 nm). To be noted: for Selectivity (ratio of IC50 for COX-1 to COX-2): IC50 COX-1 divided by IC50 COX-2; for COX-2 inhibition, in words: compared with indomethacin / other derivatives; for IC50: human recombinant COX-2; for COX-2 selectivity, in words: selectivity ratio compared with indomethacin / other derivatives. It is filed as biochemical. How it is done:
(§1) The assay procedure was followed as per the manufacturer’s protocol with slight modifications. The screening kits consolidate ovine COX-1 as well as human recombinant COX-2 compounds to screen isozyme-specific inhibitors. The test investigates the peroxidase activity by projecting the presence of oxidized TMPD (N, N, N′, N′- tetramethyl-p-phenylenediamine) at 590 nm. The COX-2 selectivity was measured as a ratio of IC50 for COX-1 divided by COX-2 [15].

The next data set has as its system gastric mucosa. The data set is described as follows: Effect on the gastric mucosa (ulcerogenic effect). Format: in vivo, Wistar rats. To be noted: 2.57 mg/kg oral, six hours after administration, rats. How it is done:
GI side effects were assessed six hours after an oral administration in each group. Animals were euthanized, and stomachs were expelled, opened along the more prominent bend and washed with saline to remove gastric contents. Each stomach was analysed by another researcher, blinded to the treatment groups. The stomach was visually examined for the presence of any lesions, hyperaemia (red tinge) or haemorrhagic spots for evaluation of the presence of ulceration.

The target in the next data set is T2, ovine COX-1 (Ovis aries, UniProt P05979).
T2 construct: purchased Cayman Chemicals, Ann Arbor, MI, USA
T2 sequence (P05979 25-600): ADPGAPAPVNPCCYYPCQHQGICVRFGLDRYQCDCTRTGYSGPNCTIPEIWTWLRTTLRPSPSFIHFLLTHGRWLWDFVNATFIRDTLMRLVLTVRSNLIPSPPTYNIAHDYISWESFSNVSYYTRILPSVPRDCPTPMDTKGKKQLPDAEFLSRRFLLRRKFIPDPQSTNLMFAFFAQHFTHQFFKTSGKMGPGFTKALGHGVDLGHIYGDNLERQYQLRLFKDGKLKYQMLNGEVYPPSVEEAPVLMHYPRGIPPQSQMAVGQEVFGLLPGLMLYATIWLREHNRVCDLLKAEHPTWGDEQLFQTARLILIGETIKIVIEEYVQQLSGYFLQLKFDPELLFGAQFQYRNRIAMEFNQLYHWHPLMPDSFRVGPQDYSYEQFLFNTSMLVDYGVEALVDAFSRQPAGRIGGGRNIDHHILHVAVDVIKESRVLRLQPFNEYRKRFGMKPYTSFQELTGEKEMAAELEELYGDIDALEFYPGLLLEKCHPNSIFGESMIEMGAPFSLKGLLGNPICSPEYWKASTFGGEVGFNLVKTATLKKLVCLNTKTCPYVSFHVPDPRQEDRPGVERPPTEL
The data set is described as follows: In vitro COX-1 colorimetric enzyme assay (Cayman kit, TMPD at 590 nm). It is filed as biochemical. How it is done: as §1

Data set [1] concerns carrageenan-induced paw oedema. The data set is described as follows: Carrageenan-induced rat paw oedema. To be noted: 2.57 mg/kg oral, 1 h before carrageenan; paw volume after 5 h. Format: in vivo, Wistar rats. How it is done: All the procedures performed followed the Committee for Control and Supervision of Experiments on Animals (CPCSEA), the Ministry of Social Justice and Empowerment, the Government of India. The in vivo study was performed using Wistar rats (250-300 gm body weight) obtained from the Torrent Research Center, […]. Animals were divided into five groups containing six rats per group and housed under controlled conditions. The temperature and relative humidity of the animal house were kept at 23 ± 2 °C and 55 ± 5%, respectively. Animals were kept under a photo schedule of 12 h light and 12 h dark cycle and given access to food and purified water ad libitum. […] A freshly prepared carrageenan solution (1%w/v, 0.1 mL) was injected into the plantar side of each rat's right hind paw. […] The paw volume was measured using a plethysmometer using the mercury displacement method after 5 h of carrageenan injection.

Values joined by “and” are separate entries in the source; they are usually repeats but may differ in a detail not shown here. Equal entries are not always repeated. “Also recorded” adds a separate entry of the source.

What is called IC50 is the midpoint of a concentration-inhibition curve. Regarding `COc1ccc2c(c1)c(CC(=O)Nc1ccc([N+](=O)[O-])cc1)c(C)n2C(=O)c1ccc(Cl)cc1` [Compound 3e, 2-(1-(4-chlorobenzoyl)-5-methoxy-2-methyl-1H-indol-3-yl)-N-(4-nitrophenyl)acetamide], at human recombinant COX-2, the “Selectivity (ratio of IC50 for COX-1 to COX-2)” value came out at 3.32; the “COX-2 inhibition, in words” value is “comparable COX-2 inhibition potential to indomethacin; also recorded: particularly significant activity against the COX-2 enzyme”; the IC50 is 0.344 µM and 0.34 µM; the “COX-2 selectivity, in words” value was “highest selectivity ratio; also recorded: excellent selectivity ratio as compared with the standard”. Also, the “Ulcerogenic effect (visual examination of stomach), in words” value in the data set on gastric mucosa was “devoid of GI side effects such as ulceration”. The IC50 against ovine COX-1 was 1.15 ± 0.3 µM. Also, in data set [1], the “Anti-inflammatory activity (inhibition of paw oedema), in words” value is “comparable anti-inflammatory activity with the standard”.

For `COc1ccc2c(c1)c(CC(=O)Nc1cccc(C)c1)c(C)n2C(=O)c1ccc(Cl)cc1` [Compound 3i, 2-(1-(4-chlorobenzoyl)-5-methoxy-2-methyl-1H-indol-3-yl)-N-m-tolylacetamide], at human recombinant COX-2, the “Selectivity (ratio of IC50 for COX-1 to COX-2)” value is 1.12; the “COX-2 inhibition, in words” value is “low inhibitory action against COX-2”; the IC50 came out at 4.22 ± 0.23 µM. The compound also came in with an IC50 against ovine COX-1 of 4.71 ± 0.22 µM.

As to `COc1ccc2c(c1)c(CC(=O)Nc1ccc(F)cc1)c(C)n2C(=O)c1ccc(Cl)cc1` [Compound 3d, 2-(1-(4-chlorobenzoyl)-5-methoxy-2-methyl-1H-indol-3-yl)-N-(4-fluorophenyl)acetamide], it took 5 ± 0.47 µM to reach half-maximal inhibition at ovine COX-1 (IC50).

In the case of `COc1ccc2c(c1)c(CC(=O)NCc1ccccc1)c(C)n2C(=O)c1ccc(Cl)cc1` [Compound 3h, N-benzyl-2-(1-(4-chlorobenzoyl)-5-methoxy-2-methyl-1H-indol-3-yl)acetamide], at human recombinant COX-2, the “Selectivity (ratio of IC50 for COX-1 to COX-2)” value is 1.06; the “COX-2 inhibition, in words” value is “low inhibitory action against COX-2”; the IC50 was 4.73 ± 0.15 µM. On ovine COX-1, this compound displayed an IC50 of 4.99 ± 0.11 µM.

For the compound `COc1ccc2c(c1)c(CC(=O)Nc1c(Cl)cccc1Cl)c(C)n2C(=O)c1ccc(Cl)cc1` [Compound 3g, 2-(1-(4-chlorobenzoyl)-5-methoxy-2-methyl-1H-indol-3-yl)-N-(2,6-dichlorophenyl)acetamide], the “Selectivity (ratio of IC50 for COX-1 to COX-2)” value on human recombinant COX-2 was 1.42. In addition, the IC50 at human recombinant COX-2 is 2.91 ± 0.38 µM; against ovine COX-1 it was 4.14 ± 0.25 µM.

In the case of `COc1ccc2c(c1)c(CC(=O)Nc1ccc(F)c(Cl)c1)c(C)n2C(=O)c1ccc(Cl)cc1` [Compound 3c, N-(3-chloro-4-fluorophenyl)-2-(1-(4-chlorobenzoyl)-5-methoxy-2-methyl-1H-indol-3-yl)acetamide], on human recombinant COX-2, the “Selectivity (ratio of IC50 for COX-1 to COX-2)” value is 0.76; the IC50 was 1.39 ± 0.32 µM; the “COX-2 selectivity, in words” value was “less than indomethacin”. The compound further returned an IC50 against ovine COX-1 of 1.06 ± 0.1 µM. Besides, the “Anti-inflammatory activity (inhibition of paw oedema), in words” value in data set [1] is “comparable anti-inflammatory activity with the standard”.

Regarding `COc1ccc2c(c1)c(CC(=O)O)c(C)n2C(=O)c1ccc(Cl)cc1` [Indomethacin, 2-(1-(4-chlorobenzoyl)-5-methoxy-2-methyl-1-H-indol-3-yl)acetic acid], the “Ulcerogenic effect (visual examination of stomach), in words” value in the data set with gastric mucosa is “small lesions and red colouration; also recorded: small lesions and ulcers”. In addition, in data set [1], the “Anti-inflammatory activity (inhibition of paw oedema), in words” value was “significant inhibition of oedema formation”.

With `COc1ccc2c(c1)c(CC(=O)Nc1ccccc1Cl)c(C)n2C(=O)c1ccc(Cl)cc1` [Compound 3b, 2-(1-(4-chlorobenzoyl),5-methoxy-2-methyl-1H-indol-3-yl)-N-(2-chlorophenyl)acetamide], the “Selectivity (ratio of IC50 for COX-1 to COX-2)” value on human recombinant COX-2 came out at 1.41. Also, the results for the IC50 on human recombinant COX-2 and at ovine COX-1 were 3.28 ± 0.16 µM and 4.61 ± 0.31 µM, respectively.

Take `COc1ccc2c(c1)c(CC(=O)Nc1ccccc1)c(C)n2C(=O)c1ccc(Cl)cc1` [Compound 3a, 2-(1(4-chlorobenzoyl),5-methoxy-2-methyl-1H-indol-3-yl)-N-phenylacetamide]: at human recombinant COX-2, the “Selectivity (ratio of IC50 for COX-1 to COX-2)” value was found to be 2.04. Moreover, the IC50 turned out to be 2.97 ± 0.11 µM on human recombinant COX-2 and 6.04 ± 0.14 µM against ovine COX-1.

The values are drawn from article PMC8876616, “Drug Design, Synthesis and Biological Evaluation of Heterocyclic Molecules as Anti-Inflammatory Agents” (Molecules, 2022).
